Each structure is given as a SMILES string.

On to `CC1(c2ccc3ccccc3c2)CSC(N)=N1.Cl` (centres unmarked), for which the melting point (in general, the temperature of the solid-liquid transition) was in the range of 264 to 265 °C.

In turn, `CCN(C(=O)c1ccco1)c1cccc(C2(C)CCSC(N)=N2)c1.Cl` (centres unmarked) displayed a melting point of 262 to 267 °C.

Consider `CC1(c2ccccc2)CC(c2ccccc2)SC(N)=N1.Cl` (centres unmarked), for which the melting point lay in the range of 161 to 165 °C.

On to `Cc1ccc(C(=O)NCc2cccc(C3(C)CCSC(N)=N3)c2)cc1.Cl` (centres unmarked), for which the melting point fell in the range of 153 to 155 °C.

`CC1(c2ccc(OCc3ccc(-c4ccccc4)cc3)cc2)CCSC(N)=N1.Cl` (centres unmarked): the melting point is 281 °C (dec.).

For the compound `CC1(c2ccccc2)CCN=C(N)S1.Cl` (centres unmarked), the melting point is 201 to 204 °C.

Compound `CC1(c2ccccc2)CN=C(N)SC1.Cl` (centres unmarked) displayed a melting point of 235 to 240 °C.

Regarding `CC1(c2cccc3c2CC(=O)N3)CCSC(N)=N1.Cl` (centres unmarked), the melting point is 272 to 285 °C (dec.).

The compound `CC1(c2ccc3c(c2)OCCO3)CCNC(N)=N1.Cl` (centres unmarked) gave a melting point of 198 to 201 °C.

On to `COc1ccc(C2(C)CCSC(NC(=N)N)=N2)cc1F.Cl` (centres unmarked), for which the melting point lay in the range of 167 to 174 °C.

`CC1(c2cccc(CNC(=O)c3ccccc3)c2)CCSC(N)=N1.Cl` (centres unmarked): the melting point is 143 to 145 °C.

Take `COc1ccc(C2(C)CCCN=C(N)S2)cc1.Cl` (centres unmarked): the melting point lay within 130 to 131 °C.

`CC1(c2ccc(Cl)cc2)CSC(N)=N1` (centres unmarked) [Compound 24] returned a melting point of 116 to 117 °C.

Compound `CC1(c2ccc(N)cc2)CCSC(N)=N1` (centres unmarked) [Compound 58] returned a melting point of 234 to 240 °C.

Regarding `COc1ccc(C2(C)CC(C)SC(N)=N2)cc1` (centres unmarked) [Compound 86], the melting point was in the range of 141 to 142 °C.

`CCOc1ccc(C2(C)CCSC(N)=N2)cc1` (centres unmarked) [Compound 132] displayed a melting point of 147 to 150 °C.

Turning to `CC1(c2cccc(OCCCN3CCCC3=O)c2)CCSC(N)=N1` (centres unmarked) [Compound 149], the melting point lay in the range of 143 to 145 °C.

In the case of `CCCC1(c2ccc(OC)cc2)CCSC(N)=N1` (centres unmarked) [Compound 202], the melting point was 117 to 118 °C.

`CC1(c2csc(C(=O)Nc3ccccc3)c2)CCSC(N)=N1` (centres unmarked) [Compound 235] displayed a melting point of 196 to 200 °C.

As for `CC1(c2cc(F)cc(NC(=O)c3cnccn3)c2)CCSC(N)=N1` (centres unmarked) [Compound 244], the melting point was in the range of 222 to 224 °C.

Compound `COCc1cc(NC(=O)c2ccc(Cl)cn2)cc(C2(C)CCSC(N)=N2)c1.Cl` (centres unmarked) [Compound 284] came in with a melting point of 181.5 °C.

Compound `CC1(c2ccc3c(c2)CCO3)CCS/C(=N/S(C)(=O)=O)N1` (centres unmarked) [Compound 308] returned a melting point of 167 to 168 °C.

`CC1(c2cc(F)cc(NC(=O)c3ncc(Cl)cc3Cl)c2)CCSC(N)=N1` (centres unmarked) [Compound 342]: the melting point lay in the range of 184 to 187 °C.

In turn, `COc1ccc(C2(C)CCCN=C(NC(C)(C)C)S2)cc1` (centres unmarked) [Compound 354] yielded a melting point of 102 to 103 °C.

Regarding `CC(C)(C)c1cccc(Oc2ccc(C3(C)CCSC(N)=N3)cc2)c1` (centres unmarked) [Compound 401], the melting point was in the range of 106 to 107 °C.

`NC1=NC2(CCCc3ccccc32)CCS1` (centres unmarked) [Compound 445] had a melting point of 92 to 93 °C.

For the compound `NC1=NC2(CCS1)CCc1ccccc12` (centres unmarked) [Compound 525], the melting point was 105 to 106 °C.

For the compound `CC1(C)CCC(C)(C)c2cc(C3(C)CCSC(N)=N3)ccc21` (centres unmarked) [Compound 533], the melting point is 180 to 181 °C.

The compound `CC1(c2ccc(C(F)(F)F)cc2)CCSC(N)=N1` (centres unmarked) [Compound 573] came in with a melting point of 112 to 114 °C.

As for `Cn1nc(C(=O)Nc2cccc(C3(C)CCSC(N)=N3)c2)cc1[N+](=O)[O-]` (centres unmarked) [Compound 601], the melting point is 181 to 192 °C.

`CCCCOc1ccc(C2(C)CCSC(N)=N2)cc1` (centres unmarked) [Compound 636] showed a melting point of 118 to 119 °C.

As to `CN(C)C(=O)c1ccc(C2(C)CCSC(N)=N2)cc1` (centres unmarked) [Compound 644], the melting point is 201 to 203 °C.

In turn, `CC1(c2cccc(CN3CCOCC3)c2)CCSC(N)=N1` (centres unmarked) [Compound 649] yielded a melting point of 161 to 162 °C.

With `CC1(c2cccc(NC(=O)c3ccc(C#N)cn3)c2)CCSC(N)=N1` (centres unmarked) [Compound 651], the melting point was 193 to 196 °C.

In turn, `CN(C)Cc1ccc(C(=O)Nc2cccc(C3(C)CCSC(N)=N3)c2)nc1` (centres unmarked) [Compound 653] had a melting point of 193 to 194 °C.

Regarding `COc1ccccc1C1(C)CCSC(N)=N1` (centres unmarked) [Compound 680], the melting point was in the range of 159 to 160 °C.

For `CC1(c2cccc(COc3ccc(Cl)cn3)c2)CCSC(N)=N1` (centres unmarked) [Compound 683], the melting point lay within 166 to 168 °C.

With `CC1(c2cccc(C(=O)Nc3ccc(Cl)cc3)c2)CCSC(N)=N1` (centres unmarked) [Compound 700], the melting point lay within 177 to 178 °C.

In turn, `CCC1(c2ccc(OC)cc2)CCSC(N)=N1` (centres unmarked) [Compound 709] displayed a melting point of 99 to 100 °C.

On to `CC1(c2cccc(NC(=O)c3ncc(Cl)cc3O)c2)CCSC(N)=N1` (centres unmarked) [Compound 717], for which the melting point is 157 to 162 °C.

As to `CC1(c2cccc(NC(=O)c3ncc(Cl)cc3N)c2)CCSC(N)=N1` (centres unmarked) [Compound 743], the melting point is 148 to 150 °C.

`CC(=O)/N=C1\NC(C)(c2ccc(F)cc2)CCS1` (centres unmarked) [Compound 767] gave a melting point of 98 to 100 °C.

`CC(C)(C)NC1=NC(C)(c2ccccc2)CCCS1` (centres unmarked) [Compound 810] returned a melting point of 47 to 48 °C.

Turning to `CC(C)c1ccc2cc(C3(C)CCSC(N)=N3)ccc2c1` (centres unmarked) [Compound 811], the melting point was in the range of 138 to 139 °C.

Consider `CC1(c2cc(NC(=O)c3ncc(Cl)cc3Cl)ccc2F)CCSC(N)=N1` (centres unmarked) [Compound 827], for which the melting point lay within 134 to 137 °C.

`COc1cccc(C2(C)CCSC(N)=N2)c1` (centres unmarked) [Compound 851]: the melting point lay in the range of 82 to 83 °C.

Regarding `CCOc1cnc(C(=O)Nc2cccc(C3(C)CCSC(N)=N3)c2)cn1` (centres unmarked) [Compound 863], the melting point is 192 to 194 °C.

As for `CC1(c2ccc(OCCc3ccc(O)cc3)cc2)CCSC(N)=N1` (centres unmarked) [Compound 881], the melting point fell in the range of 141 to 144 °C.

As for `CC1(c2ccc(OCc3ccccc3)cc2)CCSC(N)=N1` (centres unmarked) [Compound 892], the melting point is 251 °C (dec.).

`COc1ccc(SCCOc2cccc(C3(C)CCSC(N)=N3)c2)cc1` (centres unmarked) [Compound 916] registered a melting point of 131 to 132 °C.

Compound `CNC(=O)CNC1=NC(C)(c2ccc3ccccc3c2)CCS1` (centres unmarked) [Compound 930] gave a melting point of 132.1 to 134.4 °C.

For the compound `CC1(c2ccc(OC(F)(F)F)cc2)CCSC(N)=N1` (centres unmarked) [Compound 968], the melting point is 107 to 109 °C.

Take `COc1ccc(C2(c3ccc(OC)cc3)CCSC(N)=N2)cc1` [Compound 1006]: the melting point is 88 to 90 °C.

The compound `COc1ccc(C2(C)CCCSC(N)=N2)cc1` (centres unmarked) [Compound 1008] had a melting point of 125 to 126 °C.

`CNC1=NC(C)(c2ccc(OC)cc2)CCS1` (centres unmarked) [Compound 1064] showed a melting point of 84 to 85 °C.

Turning to `Cc1ccc(Oc2ccc(C3(C)CCSC(N)=N3)cc2)cc1` (centres unmarked) [Compound 1067], the melting point lay in the range of 162 to 165 °C.

The compound `CC1(c2ccc(F)c(C(=O)Nc3cc(Cl)ccn3)c2)CCSC(N)=N1` (centres unmarked) [Compound 1068] returned a melting point of 132 to 134 °C.

`Cc1cccc(Oc2ccc(C3(C)CCSC(N)=N3)cc2)c1` (centres unmarked) [Compound 1110] had a melting point of 109 to 110 °C.

Turning to `CC1(c2cccc(NC(=O)c3cnc4ccccc4n3)c2)CCSC(N)=N1` (centres unmarked) [Compound 1115], the melting point lay in the range of 167 to 170 °C.

The values are drawn from patent publication US8546380B2, “Aminodihydrothiazine derivatives” (Shionogi & Co., Ltd., priority 2005, dated 2013).
